Reference: US11472807B2, “Purine derivatives for use as medicament and for use in treating neurodegenerative or neuro-inflammatory disorders” (COMMISSARIAT À L'ENERGIE ATOMIQUE ET AUX ENERGIES …, priority 2017, dated 2022)

How the values were obtained:
[1] = system: IL-6 cytokine; experiment: Secreted IL-6 in LPS-treated human primary glial cells (MSD ELISA); assay type: cell-based; conditions: LPS 6 h, then purine derivative 10 μM for 18 h
Procedure: For assessing the cytokine production, human primary glial cells were grown until confluent on coated collagen 12-well plates. Cells were serum-starved in glial serum-free medium for 2 h and treated with LPS for 6 h before treatment with purine derivatives (10 μM) for an additional 18 h. Supernatants were harvested and secreted IL-6 cytokine was measured by ELISA by the mean of the Meso Scale Discovery (MSD) technology. Briefly, a 96-well plate having 1 spot pre-coated with the corresponding antibody is provided by MSD Technology. Before adding the samples, a first saturation step is required. Once the plate is saturated and washed, 25 μL of sample (or calibrators) per well are loaded and incubated for 1 hour. Then the plate is washed and incubated with 25 μL of the Detection Antibody solution (MSD SULFO-TAG) for 1 hour. At the end of the incubation, the plate is washed and then a chemical solution (Read buffer 1×) is added allowing electrochemiluminescence. After a short incubation (5 min) at room temperature, the plate is read on the QUICK Plex SQ120. The instrument measures the intensity of the light electrochemiluminescence.

[2] = system: IGF-1R (insulin growth factor receptor 1); experiment: IGF-1R mRNA in OHSC (RT-qPCR); assay type: cell-based, mice; conditions: 50 μM for 10 days, P=0.0845
Procedure: FIG. 12. Plots illustrating the effect of Aftin-5 on relative mRNA expression levels of murine insulin-like growth factor-1 receptor (IGF1-R; (A)) and murine insulin receptor (Insr; (B)) in organotypic hippocampal slice cultures (OHSC). OHSC culture media of OHSC were replaced by incubation medium containing Aftin-5 (50 μM; A50) or vehicle (0.1% DMSO; Veh). 10 days later, total mRNA in lysate was isolated and purified, cDNAs were then synthesized from […] of total mRNA. cDNAs were amplified by quantitative RT-PCR and the relative expression of specific genes was normalized to the housekeeping gene HPRT1 (2^−ΔCt) Mann-Whitney tests were performed and *p<0.05 indicates significant differences between Aftin-5 and control conditions. Data expressed as means+/−SEM from q=3 independent experiments with n=4-6 inserts/condition and 10 slices/insert. […]
(§1) The impact of Aftin-5 on gene expression of different biomarkers was determined by measuring mRNA levels of selected BDNF, CREB, PS95, INS Receptor/IGF-1 receptor, IL-1β, IL-6 in OHSC treated chronically with Aftin-5 or in a total brain from mice exposed to Aftin-5 at either 8 or 30 mg/Kg. […] Threshold cycles (Ct) of target gene and cyclophilin A (Ppia−control housekeeping gene) were recorded and gene expression was calculated as 2^−ΔΔCt(ΔΔCt=ΔCttreated−ΔCtcontrol, ΔCt=Cttarget−CtPpia). […]

[3] = system: GFAP and Iba-1 (microglial/astrocytes phenotype); experiment: GFAP and Iba-1 mRNA in OHSC (RT-qPCR); assay type: cell-based, mice; conditions: 50 μM, 10 days
Procedure: FIG. 9. Plots illustrating the effect of Aftin-5 on relative mRNA expression levels of GFAP (left panel) and Iba-1 (right panel) in organotypic hippocampal slice cultures (OHSC). OHSC culture media […] were replaced by incubation medium containing Aftin-5 (50 μM; A50) or vehicle (0.1% DMSO; Veh). 10 days later, total mRNA in lysate was isolated and purified, cDNAs were then synthesized from […] of total mRNA. cDNA were amplified by quantitative RT-PCR and the relative expression of specific genes was normalized to the housekeeping gene HPRT1 (2^−ΔCt). Mann-Whitney tests were performed and show no significant differences between Aftin-5 and control conditions. Data expressed as means+/−SEM from q=3 independent experiments with n=4-6 inserts/condition and 10 slices/insert. […]
as §1

IGF-1R mRNA [2]: tend to increase
SMILES: CC[C@H](CO)Nc1nc(N(C)c2ccccc2)c2ncn(C(C)C)c2n1 [Aftin-5]
Anti-inflammatory Compounds (secreted IL-6) [1]: +(>1 μM) (“+” means that the tested compound shows an anti-inflammatory and/or attenuation of Tau's phosphorylation property with a concentration higher than 1 μM) | microglial/astrocytes phenotype (GFAP, Iba-1 mRNA) [3]: does not affect
